Among the data in ChEMBL document CHEMBL1201862, “PubChem BioAssay data set” (2004) are IC50, CC50 and AC50 values, retold here.

As a reminder, the IC50 is the concentration that gives 50% inhibition. As a reminder, the AC50 is the concentration giving half of the maximal activity seen.

Activity calls are given as the source filed them.

The nature of assay [1]: ADAM10 protease inhibitors, dose response, selectivity assay for ADAM17 exosite inhibitor project, biochemical, FRET peptide substrate, recombinant human ADAM10 (AID 743259).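 Further: ADAM10 enzyme cleaving a FRET peptide substrate.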
Assay [2] can be described thus: microbe, parasite or virus in culture. The following applies: Mycobacterium tuberculosis. Format: functional.
In assay [3] the target is Disintegrin and metalloproteinase domain-containing protein 17 (Homo sapiens, UniProt P78536). Kind of assay: exosite inhibitors of ADAM17, dose response, biochemical (AID 743260).
A short description of assay [4]: inhibitors of HIV Env-driven cell fusion, dose response, cherry-pick (AID 652057). Format: functional, cell-based.
Assay [5] can be described thus: CEM21 lymphoblast cell cytotoxicity, dose response, cytotoxicity control for viral fusion inhibitor project, CellTiter-Glo luminescence, cherry-picked (AID 652042).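 Further: potency for signal decrease meaning cytotoxicity.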 Format: functional, cell-based. (In general: ATP-based viability assays read luminescence as a measure of living cells.)
A short description of assay [6]: ZM109 Env clade C HIV-1 fusion inhibitors, dose response, HeLa effector, CEM target cells, luciferase, cherry-pick (AID 652058). Format: functional, cell-based.
The nature of assay [7]: off-target signal loss in HeLa-CEM21 co-culture – HeLa F-luc CTL cells, cherry-picked, counter-screen for HIV-1 Env fusion inhibitor project, dose response (AID 652040).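 Further: potency for signal decrease marking cytotoxic or nonspecific inhibition.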 Format: functional, cell-based.
Assay [8] in a line: inhibitors of clade B AD8 Env fusion, dose response, cell-based, cherry-pick (AID 652062).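 Further: luciferase signal from cell-cell fusion driven by HIV-1 clade B AD8 Env; potency is for inhibitors of fusion seen as a drop in luminescence.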 It is filed as functional.

Chain of Disintegrin and metalloproteinase domain-containing protein 17 (P78536 whole entry, the tested form may be a part): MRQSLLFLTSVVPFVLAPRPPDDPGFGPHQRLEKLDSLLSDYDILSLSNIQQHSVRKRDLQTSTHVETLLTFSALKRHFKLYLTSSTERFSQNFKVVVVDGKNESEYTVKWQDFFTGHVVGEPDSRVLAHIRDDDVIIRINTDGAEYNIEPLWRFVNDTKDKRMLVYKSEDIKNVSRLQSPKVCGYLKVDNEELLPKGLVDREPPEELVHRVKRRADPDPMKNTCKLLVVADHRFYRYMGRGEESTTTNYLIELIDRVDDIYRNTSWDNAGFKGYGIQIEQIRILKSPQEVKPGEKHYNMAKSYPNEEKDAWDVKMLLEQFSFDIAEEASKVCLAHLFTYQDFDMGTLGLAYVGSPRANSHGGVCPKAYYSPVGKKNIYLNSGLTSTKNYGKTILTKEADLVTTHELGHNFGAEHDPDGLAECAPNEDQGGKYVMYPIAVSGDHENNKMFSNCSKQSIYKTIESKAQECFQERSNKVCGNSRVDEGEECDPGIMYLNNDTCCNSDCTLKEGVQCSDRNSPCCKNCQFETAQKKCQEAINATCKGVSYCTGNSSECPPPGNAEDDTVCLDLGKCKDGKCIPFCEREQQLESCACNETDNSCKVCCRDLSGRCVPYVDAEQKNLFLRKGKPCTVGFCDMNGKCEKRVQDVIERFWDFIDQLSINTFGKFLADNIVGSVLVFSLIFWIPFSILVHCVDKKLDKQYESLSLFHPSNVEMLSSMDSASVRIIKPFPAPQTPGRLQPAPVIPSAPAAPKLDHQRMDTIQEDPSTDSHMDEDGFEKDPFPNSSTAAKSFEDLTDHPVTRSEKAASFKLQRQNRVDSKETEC

For `CC(OC(=O)CCCCCNC1=NS(=O)(=O)c2ccccc21)C(=O)Nc1cc(Cl)cc(Cl)c1` (stereo not given), in assay [1], the IC50 is 50 µM (inactive).
Regarding `O=C(Nc1ccccc1)C1=C[C@@H](C2CCCCC2)C[C@@H](OCc2ccc(CO)cc2)O1`, the CC50 in assay [2] is > 40 µM (active). For the same compound, the IC50 in assay [3] is > 69.5 µM (inactive); in assay [1], 21.8 µM (inactive).
For `CC(OC(=O)CCCCCN=C1NS(=O)(=O)c2ccccc21)C(=O)Nc1cc(Cl)cc(Cl)c1` (stereo not given), in assay [3], the IC50 is > 69.5 µM (inactive).
As for `CC1(C)Cc2ccccc2C(/C(=N\Nc2cccc(Cl)c2)C(N)=O)=N1`, the AC50 is 2.68 µM (active) in assay [4]; 49.5 µM (active) in assay [5]; 2.69 µM (active) in assay [6]; 35.5 µM (active) in assay [7]; 8.02 µM (active) in assay [8].
